Measured values reported in paper PMC6556873, “Rapid Covalent-Probe Discovery by Electrophile-Fragment Screening” (Journal of the American Chemical Society, 2019).
Read-outs that look alike come from different tables or passages of the source.

Tests used:
[1] = in vitro; design: species or system CCD841, HEK293; conditions: human, hb2 cells, read-out: HB-2 Cells Viability (%)
[2] = in vitro; design: species or system HB2, HEK293; conditions: human, ccd841 cells
[3] = biological target: T1, PCAF (Homo sapiens, UniProt Q92831); design: Intact protein LC/MS covalent labelling, fragments in pools of five, 200 uM each, 4 °C; conditions: 24 h, 4 °C, pool of five; 200 µM; covalent
T1 construct: gene KAT2B

[4] = biological target: T2, BSA (Bos taurus, UniProt P02769); design: Intact protein LC/MS covalent labelling, fragments in pools of five, 200 uM each, 4 °C; conditions: 24 h, 4 °C, pool of five; 200 µM; covalent
T2 construct: gene ALB

[5] = biological target: T3, NUDT7 (Homo sapiens, UniProt P0C024); design: Intact protein LC/MS covalent labelling, fragments in pools of five, 200 uM each, 4 °C; conditions: 24 h, 4 °C, pool of five; 200 µM; covalent
T3 construct: residues 14-235, E. coli, pNIC28-Bsa4, N-terminal His6 tag removed by TEV, construct 26672 Da

[6] = biological target: T4, OTUB2 (OTUB2A) (Homo sapiens, UniProt Q96DC9); design: Intact protein LC/MS covalent labelling, fragments in pools of five, 200 uM each, 4 °C; conditions: 24 h, 4 °C, pool of five; 200 µM; covalent
T4 construct: full length residues 1-234, E. coli BL21(DE3)-R3, His tag removed by TEV, construct 27312 Da
T4 sequence (Q96DC9 1-234): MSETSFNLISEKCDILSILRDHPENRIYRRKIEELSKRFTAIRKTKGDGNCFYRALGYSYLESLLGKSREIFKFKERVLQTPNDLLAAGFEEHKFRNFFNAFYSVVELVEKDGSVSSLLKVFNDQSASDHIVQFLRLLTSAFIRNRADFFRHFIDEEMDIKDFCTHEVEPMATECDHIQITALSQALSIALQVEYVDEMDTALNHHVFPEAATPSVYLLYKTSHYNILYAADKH

[7] = in vitro; design: species or system HB2, CCD841; conditions: human, hek293 cells

T3 sequence (P0C024 14-235): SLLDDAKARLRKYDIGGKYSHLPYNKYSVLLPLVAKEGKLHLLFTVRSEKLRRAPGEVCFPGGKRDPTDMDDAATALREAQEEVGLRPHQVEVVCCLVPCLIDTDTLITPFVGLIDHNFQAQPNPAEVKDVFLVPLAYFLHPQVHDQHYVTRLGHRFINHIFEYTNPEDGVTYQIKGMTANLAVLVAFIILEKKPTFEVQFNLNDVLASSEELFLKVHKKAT
T1 sequence (Q92831 whole entry, the tested form may be a part): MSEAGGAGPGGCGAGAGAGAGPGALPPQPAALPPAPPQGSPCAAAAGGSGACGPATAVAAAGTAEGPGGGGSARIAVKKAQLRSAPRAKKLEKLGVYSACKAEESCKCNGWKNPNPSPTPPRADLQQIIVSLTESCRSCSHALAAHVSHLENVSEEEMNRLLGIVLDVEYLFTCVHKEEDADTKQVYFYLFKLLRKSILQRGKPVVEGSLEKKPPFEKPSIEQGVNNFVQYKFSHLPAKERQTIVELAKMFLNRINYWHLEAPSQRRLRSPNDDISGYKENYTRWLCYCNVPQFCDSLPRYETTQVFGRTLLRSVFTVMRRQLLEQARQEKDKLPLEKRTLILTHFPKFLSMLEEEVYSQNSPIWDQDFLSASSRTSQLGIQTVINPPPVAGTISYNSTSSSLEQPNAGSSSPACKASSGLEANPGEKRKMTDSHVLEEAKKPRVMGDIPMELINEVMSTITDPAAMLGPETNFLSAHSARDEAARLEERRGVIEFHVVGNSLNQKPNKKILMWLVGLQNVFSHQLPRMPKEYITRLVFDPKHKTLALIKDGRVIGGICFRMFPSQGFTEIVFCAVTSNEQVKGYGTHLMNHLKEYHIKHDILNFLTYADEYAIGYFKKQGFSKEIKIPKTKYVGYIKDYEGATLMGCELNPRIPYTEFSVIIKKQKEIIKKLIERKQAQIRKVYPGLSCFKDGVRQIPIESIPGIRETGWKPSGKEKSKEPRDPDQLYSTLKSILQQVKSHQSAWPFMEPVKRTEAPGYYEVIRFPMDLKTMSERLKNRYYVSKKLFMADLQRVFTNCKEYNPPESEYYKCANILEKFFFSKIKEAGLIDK
T2 sequence (P02769 whole entry, the tested form may be a part): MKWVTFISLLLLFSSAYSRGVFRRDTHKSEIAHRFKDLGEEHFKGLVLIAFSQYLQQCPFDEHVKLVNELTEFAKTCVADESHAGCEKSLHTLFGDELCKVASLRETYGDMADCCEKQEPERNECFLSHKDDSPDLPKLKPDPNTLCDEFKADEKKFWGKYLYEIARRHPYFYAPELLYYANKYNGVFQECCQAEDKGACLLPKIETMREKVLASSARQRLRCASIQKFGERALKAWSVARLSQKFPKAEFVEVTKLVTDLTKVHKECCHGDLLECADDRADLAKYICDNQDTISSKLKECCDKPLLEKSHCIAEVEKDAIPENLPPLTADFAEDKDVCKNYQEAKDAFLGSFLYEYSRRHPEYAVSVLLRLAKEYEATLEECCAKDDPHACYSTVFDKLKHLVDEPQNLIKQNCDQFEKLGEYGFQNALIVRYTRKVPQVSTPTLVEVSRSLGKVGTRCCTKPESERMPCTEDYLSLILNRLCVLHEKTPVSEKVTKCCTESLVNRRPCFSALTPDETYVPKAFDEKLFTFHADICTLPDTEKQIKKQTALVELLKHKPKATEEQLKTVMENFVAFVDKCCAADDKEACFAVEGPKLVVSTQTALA

| PCAF [3] | BSA [4] | NUDT7 [5] | OTUB2 [6] | Structure (SMILES) | viability at 48 h, 10 µM [1] [%] | viability at 48 h, 10 µM [2] [%] | viability at 48 h, 10 µM [7] [%] |
| --- | --- | --- | --- | --- | --- | --- | --- |
| 0 | 0 | 0.06 | 0.33 | O=C(CCl)NCc1ccc(F)cc1C(F)(F)F [PCM-0102733] | 86.6 | 79.1 | 68.8 |
| 0 | 0 | 0 | 0 | COC(=O)C1(NC(=O)CCl)CCCCC1 [PCM-0102734] | 98.3 | 95.1 | 112 |
| 0 | 0 | 0 | 0.09 | C#Cc1cccc(NC(=O)CCl)c1 [PCM-0102735] | 90.9 | 85.7 | 87 |
| 0 | 0 | 0 | 0.41 | O=C(CCl)Nc1ccc2c(c1)OC(F)(F)O2 [PCM-0102738] | 30 | 72.2 | 14.2 |
| 0 | 0 | 0.07 | 0 | Cl.O=C(CCl)N1CCN(Cc2ccsc2)CC1 [PCM-0102739] | 55.2 | 85.9 | 42.7 |
| 0 | 0 | 0.05 | 0 | C=CC(=O)Nc1ccc([N+](=O)[O-])cc1 [PCM-0102740] | 77.4 | 71.6 | 87.6 |
| 0 | 0 | 0 | 0.1 | O=C(CCl)Nc1cc(C(F)(F)F)ccc1N1CCOCC1 [PCM-0102741] | 102 | 111 | 118 |
| 0 | 0 | 0.41 | 0 | C=CC(=O)Nc1ccccc1[N+](=O)[O-] [PCM-0102742] | 41.2 | 66.4 | 65.8 |
| 0 | 0 | 0 | 0 | O=C(CCl)N(C1=CCCCC1)C1CC1 [PCM-0102745] | 96.2 | 88.3 | 98.7 |
| 0 | 0 | 0 | 0 | CC(C)N1CCC(NC(=O)CCl)CC1.Cl [PCM-0102748] | 90.9 | 90.3 | 97 |
| 0 | 0 | 0 | 0.24 | CC1CN(c2ccc(NC(=O)CCl)cc2)CC(C)O1 (stereo not drawn) [PCM-0102750] | 65.9 | 64.7 | 52.7 |
| 0 | 0 | 0.16 | 0.06 | CN(CC1COc2ccccc2O1)C(=O)CCl (stereo not drawn) [PCM-0102756] | 13.3 | 52.5 | 21.7 |
| 0 | 0 | 0 | 0 | NC(=O)c1ccccc1NC(=O)CCl [PCM-0102758] | 69.6 | 66.1 | 53.5 |
| 0 | 0 | 0.12 | 0 | Cc1ccc(S(=O)(=O)N2CCN(C(=O)CCl)CC2)cc1 [PCM-0102759] | 7.5 | 49.9 | 8.6 |
| 0 | 0 | 0.08 | 0 | O=C(CCl)N(C1CCCCC1)C1CCS(=O)(=O)C1 (stereo not drawn) [PCM-0102760] | 49.7 | 31.1 | 17.4 |
| 0 | 0 | 0.21 | 0 | O=C(O)C1Cc2ccccc2CN1C(=O)CCl (stereo not drawn) [PCM-0102761] | 98.1 | 91.2 | 95.9 |
| 0 | 0 | 0 | 0.13 | O=C(CCl)Nc1cc(Cl)ccc1F [PCM-0102762] | 11.4 | 49.4 | 2.4 |

| PCAF [3] | BSA [4] | NUDT7 [5] | OTUB2 [6] | Structure (SMILES) | viability at 48 h, 10 µM [1] [%] | viability at 48 h, 10 µM [2] [%] | viability at 48 h, 10 µM [7] [%] |
| --- | --- | --- | --- | --- | --- | --- | --- |
| 0 | 0 | 0.07 | 0.29 | COC(=O)c1ccc(Cl)c(NC(=O)CCl)c1 [PCM-0102764] | 16.7 | 39.9 | 5.7 |
| 0 | 0 | 0 | 0 | C=CC(=O)N1CCC(CS(C)(=O)=O)C1 (stereo not drawn) [PCM-0102765] | 98.4 | 101 | 85.1 |
| 0 | 0 | 0.05 | 0 | C=CC(=O)NCC1CCCCC1 [PCM-0102766] | 97.5 | 114 | 79 |
| 0 | 0 | 0 | 0.21 | C=CC(=O)NCC1C2Cc3ccccc3C12 (stereo not drawn) [PCM-0102769] | 94.3 | 97.5 | 79.1 |
| 0 | 0 | 0 | 0 | C=CC(=O)N1CCC(C(=O)N(C)c2ccccc2)C1 (stereo not drawn) [PCM-0102771] | 100 | 106 | 72.2 |
| 0 | 0 | 0.13 | 0.28 | CSc1ccc(NC(=O)CCl)cc1 [PCM-0102772] | 15.2 | 51.2 | 3 |
| 0 | 0 | 0.13 | 0 | Cc1ccc(-c2nnc(C)[nH]2)c(NC(=O)CCl)c1 [PCM-0102775] | 61.1 | 45 | 53 |
| 0 | 0 | 0.11 | 0 | Cc1noc(C)c1CNC(=O)CCl [PCM-0102780] | 102 | 94.9 | 101 |
| 0 | 0 | 0 | 0 | CN(C(=O)CCl)C(C)(C)C#N [PCM-0102782] | 95.9 | 92.5 | 77.7 |
| 0 | 0 | 0.19 | 0 | CC(c1ccc(F)cc1)N(C)C(=O)CCl (stereo not drawn) [PCM-0102783] | 47.3 | 47.8 | 30.3 |
| 0 | 0 | 0.2 | 0 | Cc1ccsc1CN(C)C(=O)CCl [PCM-0102785] | 22.2 | 56.7 | 36 |
| 0 | 0 | 0 | 0 | CC(C)(C)OC(=O)N1CCN(C(=O)CCl)CC1 [PCM-0102786] | 85.9 | 84 | 68.2 |
| 0 | 0 | 0 | 0 | CN(Cc1ccccc1F)C(=O)CCl [PCM-0102787] | 57.7 | 72.2 | 57.9 |
| 0 | 0 | 0.36 | 0.09 | Cc1nc(NC(=O)CCl)sc1-c1ccccc1 [PCM-0102788] | 35.7 | 23.8 | 26.7 |
| 0 | 0 | 0 | 0.08 | CC1CC(C)CN(C(=O)CCl)C1 (stereo not drawn) [PCM-0102789] | 102 | 83.1 | 61.8 |
| 0 | 0 | 0 | 0 | O=C(CCl)NCc1cc(F)cc(F)c1 [PCM-0102790] | 98.6 | 71.3 | 74.1 |
